Data: patent publication US20130267494A1, “1,4-OXAZEPANE DERIVATIVES” (priority 2010, published 2013)
Counter-ions that a name gives are not always drawn. Like-named read-outs stand apart in the source and are kept apart here.

Columns and labels:
[1] = molecular target: T1, human norepinephrine transporter (Homo sapiens, UniProt P23975); assay: Inhibitory action on human norepinephrine transporter ([3H]-norepinephrine uptake in CHO cells); format: cell-based; conditions: CHO, relative to inhibitory activity of 10 μM DMI as 100%
T1 construct: expressed in transfected cells
Method in brief: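 Stably transfected CHO-K1 cells plated overnight, then given test compound and [3H]-norepinephrine (20 nM final, from 200 nM) in HEPES-buffered saline with 0.5% BSA for 45 min. After PBS washes, retained radioactivity counted by scintillation. Inhibition at 10 μM or 1 μM compound expressed relative to 10 μM DMI as 100%.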

[2] = molecular target: T2, human serotonin transporter (Homo sapiens, UniProt P31645); assay: Inhibitory action on human serotonin transporter ([3H]-5-hydroxytryptamine uptake in CHO cells); format: cell-based; conditions: CHO, relative to inhibitory activity of 10 μM Paroxetine as 100%, read-out: inhibitory rate (%); for inhibition at 1 µM: compound 1 μM
T2 construct: expressed in transfected cells
Method in brief: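 CHO-K1 cells stably expressing human SERT, plated overnight, took up [3H]-5-HT (diluted to 200 nM before a 1:10 addition) for 20 min in HEPES-buffered saline with glucose and 0.5% BSA; radioactivity counted by scintillation. Compounds at 10 μM or 1 μM, activity expressed relative to 10 μM paroxetine set as 100%.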

[3] = read-out: inhibitory rate (%), compound 1 μM
[4] = compound 1 μM, read-out: inhibitory rate (%)

T2 sequence (P31645 whole entry): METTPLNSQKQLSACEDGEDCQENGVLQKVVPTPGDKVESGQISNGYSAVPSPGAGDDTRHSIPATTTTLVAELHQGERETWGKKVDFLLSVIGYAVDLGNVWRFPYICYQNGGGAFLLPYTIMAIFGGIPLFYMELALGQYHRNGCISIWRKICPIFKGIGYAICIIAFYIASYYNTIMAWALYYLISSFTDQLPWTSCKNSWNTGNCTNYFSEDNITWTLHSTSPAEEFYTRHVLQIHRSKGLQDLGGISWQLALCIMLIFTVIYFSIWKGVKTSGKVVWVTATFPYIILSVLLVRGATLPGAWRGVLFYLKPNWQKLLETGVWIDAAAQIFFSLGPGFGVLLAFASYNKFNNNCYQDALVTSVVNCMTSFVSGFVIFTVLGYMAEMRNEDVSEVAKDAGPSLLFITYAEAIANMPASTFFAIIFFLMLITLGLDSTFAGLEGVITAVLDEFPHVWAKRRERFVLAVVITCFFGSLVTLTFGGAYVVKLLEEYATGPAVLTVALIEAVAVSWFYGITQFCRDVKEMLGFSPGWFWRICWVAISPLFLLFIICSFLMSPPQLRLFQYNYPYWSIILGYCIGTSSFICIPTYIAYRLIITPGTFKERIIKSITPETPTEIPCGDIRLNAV
T1 sequence (P23975 whole entry): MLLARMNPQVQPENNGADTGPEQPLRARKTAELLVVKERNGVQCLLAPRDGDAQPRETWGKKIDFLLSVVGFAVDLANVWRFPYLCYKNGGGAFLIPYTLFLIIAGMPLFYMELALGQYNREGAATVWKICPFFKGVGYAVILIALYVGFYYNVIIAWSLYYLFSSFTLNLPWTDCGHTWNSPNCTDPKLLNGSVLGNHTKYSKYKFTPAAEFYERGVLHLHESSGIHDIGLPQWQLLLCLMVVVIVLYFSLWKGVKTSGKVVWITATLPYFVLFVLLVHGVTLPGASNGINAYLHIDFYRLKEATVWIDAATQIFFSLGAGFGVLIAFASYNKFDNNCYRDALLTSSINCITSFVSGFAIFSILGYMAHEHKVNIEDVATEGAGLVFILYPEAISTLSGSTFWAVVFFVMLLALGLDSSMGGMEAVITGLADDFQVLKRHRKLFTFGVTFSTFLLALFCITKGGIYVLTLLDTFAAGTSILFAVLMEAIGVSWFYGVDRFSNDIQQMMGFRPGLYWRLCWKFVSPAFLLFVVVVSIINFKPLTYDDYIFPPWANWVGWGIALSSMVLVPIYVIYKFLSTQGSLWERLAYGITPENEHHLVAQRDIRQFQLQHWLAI

`CC(=O)NC[C@H]1CNCCO[C@@H]1c1ccc(Cl)c(Cl)c1` (racemic) [Example 6, N-{[(6RS,7SR)-7-(3,4-dichlorophenyl)-1,4-oxazepan-6-yl]methyl}acetamide monohydrochloride] gave an inhibition at 1 µM [1, 3] of 95%, an inhibition at 10 µM ([1]; read-out: inhibitory rate (%), compound 10 μM) of 97% and an inhibition at 1 µM [2] of 84%. It also gave an inhibition at 10 µM ([2]; compound 10 μM, CHO cells expressing human serotonin transporter) of 98%.

Work on `O=c1[nH]c(-c2cccn(C[C@@H]3CNCCO[C@H]3c3ccc(Cl)c(Cl)c3)c2=O)no1` [Example 31, 1-{[(6S,7R)-7-(3,4-dichlorophenyl)-1,4-oxazepan-6-yl]methyl}-3-(5-oxo-4,5-dihydro-1,2,4-oxadiazol-3-yl)pyridin-2(1H)-one monohydrochloride] yielded an inhibition at 1 µM [1, 4] of 108% and an inhibition at 1 µM [2] of 95%.

With `CC(=O)NC[C@@H]1CNCCO[C@H]1c1ccc(Cl)c(Cl)c1` [Example 32, N-{[(6S,7R)-7-(3,4-dichlorophenyl)-1,4-oxazepan-6-yl]methyl}acetamide 0.5 fumarate] the inhibition at 1 µM [1, 3] was 93% and the inhibition at 1 µM [2] was 84%.

`COCC(=O)NC[C@@H]1CNCCO[C@H]1c1ccc(Cl)c(Cl)c1` [Example 33, N-{[(6S,7R)-7-(3,4-dichlorophenyl)-1,4-oxazepan-6-yl]methyl}-2-methoxyacetamide monohydrochloride] showed an inhibition at 1 µM [1, 4] of 100% and an inhibition at 1 µM [2] of 92%.

Compound `CC(=O)N[C@@H]1CNCCO[C@H]1c1ccc(Cl)c(Cl)c1` [Example 36, N-[(6R,7S)-7-(3,4-dichlorophenyl)-1,4-oxazepan-6-yl]acetamide monofumarate] has an inhibition at 1 µM [1, 3] of 101% and an inhibition at 1 µM [2] of 69%.

Work on `NS(=O)(=O)N[C@@H]1CNCCO[C@H]1c1ccc(Cl)c(Cl)c1` [Example 37, N-[(6R,7S)-7-(3,4-dichlorophenyl)-1,4-oxazepan-6-yl]sulfamide monohydrochloride] yielded an inhibition at 1 µM [1, 4] of 102% and an inhibition at 1 µM [2] of 71%.

With `COCC(=O)NC[C@@H]1CNCCO[C@H]1c1ccc(Cl)c(F)c1` [Example 38, N-{[(6S,7R)-7-(4-chloro-3-fluorophenyl)-1,4-oxazepan-6-yl]methyl}-2-methoxyacetamide monohydrochloride] the inhibition at 1 µM [1, 4] was 102% and the inhibition at 1 µM [2] was 69%.

`[2H]C([2H])([2H])OCC(=O)NC[C@@H]1CNCCO[C@H]1c1ccc(Cl)c(F)c1` [Example 39, N-{[(6S,7R)-7-(4-chloro-3-fluorophenyl)-1,4-oxazepan-6-yl]methyl}-2-[(^2H3)methyloxy]acetamide monohydrochloride] gave an inhibition at 1 µM [1, 4] of 102% and an inhibition at 1 µM [2] of 58%.

Work on `CCOCC(=O)NC[C@@H]1CNCCO[C@H]1c1ccc(Cl)c(F)c1` [Example 40, N-{[(6S,7R)-7-(4-chloro-3-fluorophenyl)-1,4-oxazepan-6-yl]methyl}-2-ethoxyacetamide monohydrochloride] yielded an inhibition at 1 µM [1, 4] of 104% and an inhibition at 1 µM [2] of 80%.

With `CC(C)OCC(=O)NC[C@@H]1CNCCO[C@H]1c1ccc(Cl)c(F)c1` [Example 41, N-{[(6S,7R)-7-(4-chloro-3-fluorophenyl)-1,4-oxazepan-6-yl]methyl}-2-(1-methylethoxy)acetamide monohydrochloride] the inhibition at 1 µM [1, 4] was 101% and the inhibition at 1 µM [2] was 70%.

With `O=c1[nH]c(-c2cccn(C[C@@H]3CNCCO[C@H]3c3ccc(Cl)c(F)c3)c2=O)no1` [Example 43, 1-{[(6S,7R)-7-(4-chloro-3-fluorophenyl)-1,4-oxazepan-6-yl]methyl}-3-(5-oxo-4,5-dihydro-1,2,4-oxadiazol-3-yl)pyridin-2(1H)-one monohydrochloride] the inhibition at 1 µM [1, 3] was 102% and the inhibition at 1 µM [2] was 72%.

Work on `O=C(O)c1cccn(C[C@@H]2CNCCO[C@H]2c2ccc(Cl)c(F)c2)c1=O` [Example 44, 1-{[(6S,7R)-7-(4-chloro-3-fluorophenyl)-1,4-oxazepan-6-yl]methyl}-2-oxo-1,2-dihydropyridine-3-carboxylic acid monohydrochloride] yielded an inhibition at 1 µM [1, 4] of 102% and an inhibition at 1 µM [2] of 40%.

`OC[C@H](O)[C@@H]1OCCNC[C@H]1c1ccc(Cl)c(Cl)c1` [Example 45, (1S)-1-[(6R,7R)-6-(3,4-dichlorophenyl)-1,4-oxazepan-7-yl]ethane-1,2-diol monohydrochloride] was tested, and the inhibition at 1 µM [1, 4] was 105% and the inhibition at 1 µM [2] was 36%.

`O=c1[nH]c(-c2cccnc2O[C@@H]2CNCCO[C@H]2c2ccc(Cl)c(F)c2)no1` [Example 556, 3-(2-{[(6R,7S)-7-(4-chloro-3-fluorophenyl)-1,4-oxazepan-6-yl]oxy}pyridin-3-yl)-1,2,4-oxadiazol-5(4H)-one monohydrochloride] showed an inhibition at 1 µM [1, 4] of 101% and an inhibition at 1 µM [2] of 77%.

Compound `O=c1[nH]c(-c2ccccc2O[C@@H]2CNCCO[C@H]2c2ccc(Cl)c(F)c2)no1` [Example 577, 3-(2-{[(6R, 7S)-7-(4-chloro-3-fluoro-phenyl)-1,4-oxazepan-6-yl]oxy}phenyl)-1,2,4-oxadiazol-5(4H)-one] has an inhibition at 1 µM [1, 4] of 97% and an inhibition at 1 µM [2] of 53%.

Work on `O=c1[nH]c(-c2ncccc2O[C@@H]2CNCCO[C@H]2c2ccc(Cl)c(F)c2)no1` [Example 584, 3-(3-{[(6R, 7S)-7-(4-chloro-3-fluorophenyl)-1,4-oxazepan-6-yl]oxy}pyridin-2-yl)-1,2,4-oxadiazol-5(4H)-one] yielded an inhibition at 1 µM [1, 4] of 107% and an inhibition at 1 µM [2] of 41%.
